Assay results reported in ChEMBL document CHEMBL3045041, “Synthesis of novel aryl(4-substituted pyridin-3-yl)methyl carbamates and their herbicidal activity” (J Pestic Sci, 2012).

Assays:
Oryza sativa = experiment: Phytotoxicity against Oryza sativa cv. Kinuhikari (rice) planted at 3 cm depth measured after 20 to 25 days; format: organism-based; settings: in vivo
[1] = test system: Schoenoplectiella juncoides; experiment: Herbicidal activity against Schoenoplectiella juncoides under greenhouse condition compound treated at 0.5 leaf stage measured after 14 to 20 days; format: functional
Echinochloa oryzicola [2] = experiment: Herbicidal activity against Echinochloa oryzicola under greenhouse condition compound treated at 2.5 leaf stage measured after 14 to 20 days; format: functional
Echinochloa oryzicola [3] = experiment: Herbicidal activity against Echinochloa oryzicola under greenhouse condition compound treated at emergence stage measured after 14 to 20 days; format: functional

CN(C)C(=O)OC(c1cnccc1C#N)c1cccc2ccccc12 (centres undefined)
ED20 (Oryza sativa): > 1000 gAi/ha
ED80 [1]: 250 gAi/ha
ED80 (Echinochloa oryzicola [2]): 250 gAi/ha
ED80 (Echinochloa oryzicola [3]): 63 gAi/ha

COc1ccncc1C(OC(=O)N(C)C)c1cccc2ccccc12 (centres undefined)
ED20 (Oryza sativa): > 2000 gAi/ha
ED80 [1]: >1000 gAi/ha
ED80 (Echinochloa oryzicola [2]): >1000 gAi/ha
ED80 (Echinochloa oryzicola [3]): >1000 gAi/ha

Cc1ccncc1C(OC(=O)N(C)C)c1cccc2ccccc12 (centres undefined)
ED20 (Oryza sativa): 2000 gAi/ha
ED80 [1]: >1000 gAi/ha
ED80 (Echinochloa oryzicola [3]): 500 gAi/ha

CN(C)C(=O)OC(c1cnccc1Cl)c1cccc2ccccc12 (centres undefined)
ED20 (Oryza sativa): 1000 gAi/ha
ED80 [1]: 63 gAi/ha
ED80 (Echinochloa oryzicola [2]): >500 gAi/ha
ED80 (Echinochloa oryzicola [3]): 63 gAi/ha

CN(C)C(=O)OC(c1cnccc1Br)c1cccc2ccccc12 (centres undefined)
ED20 (Oryza sativa): 2000 gAi/ha
ED80 [1]: 250 gAi/ha
ED80 (Echinochloa oryzicola [2]): 250 gAi/ha
ED80 (Echinochloa oryzicola [3]): 31 gAi/ha

O=C(OC(c1cnccc1C(F)(F)F)c1cccc2ccccc12)n1ccnc1 (centres undefined)
ED80 [1]: >1000 gAi/ha
ED80 (Echinochloa oryzicola [3]): >500 gAi/ha

CCN(CC)C(=O)OC(c1cnccc1C(F)(F)F)c1cccc2ccccc12 (centres undefined)
ED20 (Oryza sativa): > 2000 gAi/ha
ED80 [1]: 1000 gAi/ha
ED80 (Echinochloa oryzicola [2]): 250 gAi/ha
ED80 (Echinochloa oryzicola [3]): 31 gAi/ha

CNC(=O)OC(c1cnccc1C(F)(F)F)c1cccc2ccccc12 (centres undefined)
ED20 (Oryza sativa): 2000 gAi/ha
ED80 [1]: 500 gAi/ha
ED80 (Echinochloa oryzicola [2]): 250 gAi/ha
ED80 (Echinochloa oryzicola [3]): 63 gAi/ha
